The values that follow come from ChEMBL document CHEMBL4028801, “A multifactorial approach to hepatobiliary transporter assessment enables improved therapeutic compound development” (Toxicol Sci, 2013).

Molecules are shown by their SMILES.

Data set [1] can be described thus: Ratio of drug concentration at steady state in human at 750 mg, po TID or 1250 mg, po BID after 12 hrs to IC50 for human BSEP overexpressed in Sf9 insect cells. In kind it is ADME, organism-based. Particulars: in vivo.
For data set [2], the target named is ATP-binding cassette sub-family C member 2 (Homo sapiens, UniProt Q92887). Description: Inhibition of human MRP2 overexpressed in Sf9 cell membrane vesicles assessed as uptake of [3H]-estradiol-17beta-D-glucuronide in presence of ATP and GSH measured after 20 mins by membrane vesicle transport assay.
A short description of data set [3]: AUC in human at 750 mg, po TID or 1250 mg, po BID after 12 hrs. It is filed as ADME, organism-based. Also on record: dose 750 mg, time < 12 hr, route oral. The following applies: in vivo.
Data set [4] relates to Homo sapiens. The experiment in a line: Drug concentration at steady state in human at 750 mg, po TID or 1250 mg, po BID after 12 hrs. It is filed as ADME, organism-based. The following applies: in vivo.
For data set [5], the target named is ATP-binding cassette sub-family C member 3 (Homo sapiens, UniProt O15438). The experiment in a line: Inhibition of human MRP3 overexpressed in Sf9 insect cell membrane vesicles assessed as uptake of [3H]-estradiol-17beta-D-glucuronide in presence of ATP and GSH measured after 10 mins by membrane vesicle transport assay. It is filed as ADME, cell-based.
The target in data set [6] is T1, ATP-binding cassette sub-family C member 4 (Homo sapiens, UniProt O15439).
T1 sequence (O15439 whole entry): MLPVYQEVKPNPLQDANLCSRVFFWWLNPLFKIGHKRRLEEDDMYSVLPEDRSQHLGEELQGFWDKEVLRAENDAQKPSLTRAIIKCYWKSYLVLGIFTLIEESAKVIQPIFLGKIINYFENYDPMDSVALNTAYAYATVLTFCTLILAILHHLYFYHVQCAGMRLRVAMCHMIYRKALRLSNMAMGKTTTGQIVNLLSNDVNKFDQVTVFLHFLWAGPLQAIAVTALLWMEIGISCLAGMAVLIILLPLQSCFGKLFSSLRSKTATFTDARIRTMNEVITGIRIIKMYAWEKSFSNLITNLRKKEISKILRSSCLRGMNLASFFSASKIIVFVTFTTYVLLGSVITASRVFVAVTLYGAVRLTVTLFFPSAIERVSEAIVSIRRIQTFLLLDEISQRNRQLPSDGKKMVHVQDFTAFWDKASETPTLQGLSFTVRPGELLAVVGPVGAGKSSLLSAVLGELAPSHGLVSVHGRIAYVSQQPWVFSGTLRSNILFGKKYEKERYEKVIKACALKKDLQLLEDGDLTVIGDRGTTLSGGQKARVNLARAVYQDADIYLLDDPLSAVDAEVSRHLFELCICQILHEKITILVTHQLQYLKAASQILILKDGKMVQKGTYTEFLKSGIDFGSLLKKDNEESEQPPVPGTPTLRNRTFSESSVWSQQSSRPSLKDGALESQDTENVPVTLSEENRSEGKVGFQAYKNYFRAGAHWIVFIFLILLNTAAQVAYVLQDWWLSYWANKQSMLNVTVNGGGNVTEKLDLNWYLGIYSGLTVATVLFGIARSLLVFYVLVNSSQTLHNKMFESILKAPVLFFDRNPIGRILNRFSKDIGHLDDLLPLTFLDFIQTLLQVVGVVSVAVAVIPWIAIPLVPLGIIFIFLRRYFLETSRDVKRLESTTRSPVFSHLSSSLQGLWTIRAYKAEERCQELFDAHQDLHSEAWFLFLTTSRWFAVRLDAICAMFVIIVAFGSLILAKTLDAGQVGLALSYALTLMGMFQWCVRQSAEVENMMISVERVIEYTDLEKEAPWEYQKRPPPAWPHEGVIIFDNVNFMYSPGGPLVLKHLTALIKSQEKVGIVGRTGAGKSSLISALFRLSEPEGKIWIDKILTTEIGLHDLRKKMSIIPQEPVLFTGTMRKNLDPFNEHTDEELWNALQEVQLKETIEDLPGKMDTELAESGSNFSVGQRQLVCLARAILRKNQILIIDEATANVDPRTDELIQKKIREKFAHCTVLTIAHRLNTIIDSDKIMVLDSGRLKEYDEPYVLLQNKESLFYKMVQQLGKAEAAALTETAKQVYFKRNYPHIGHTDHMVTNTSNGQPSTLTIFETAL
Description: Inhibition of human MRP4 overexpressed in Sf9 cell membrane vesicles assessed as uptake of [3H]-estradiol-17beta-D-glucuronide in presence of ATP and GSH measured after 20 mins by membrane vesicle transport assay. In kind it is ADME, cell-based.

Data set [7] in a line: Ratio of drug concentration at steady state in human at 750 mg, po TID or 1250 mg, po BID after 12 hrs to IC50 for human MRP4 overexpressed in Sf9 insect cells. It is filed as ADME, organism-based. Particulars: in vivo.
The nature of data set [8]: Ratio of drug concentration at steady state in human at 100 mg, po BID to IC50 for human MRP3 overexpressed in Sf9 insect cells. Particulars: in vivo. In kind it is ADME, organism-based.
The nature of data set [9]: Ratio of drug concentration at steady state in human at 100 mg, po BID to IC50 for human MRP4 overexpressed in Sf9 insect cells. The following applies: in vivo. It is filed as ADME, organism-based.
Data set [10] is described as follows: Ratio of AUC in liver to plasma in Sprague-Dawley rat at 1500 mg/kg, po administered as single oral gavage measured after 24 hrs by Liquid chromatography/tandem mass spectrometry. It is filed as ADME, organism-based. Particulars: liver and plasma, read-out: Ratio AUC.
Data set [11] has as its system Homo sapiens. The experiment in a line: Drug concentration at steady state in human at 100 mg, po BID. The following applies: in vivo. It is filed as ADME, organism-based.
Data set [12] in a line: AUC in human at 100 mg, po BID. In kind it is ADME, organism-based. Particulars: in vivo.
Data set [13] addresses Bile salt export pump (Homo sapiens, UniProt O95342). The experiment in a line: Inhibition of human BSEP overexpressed in Sf9 cell membrane vesicles assessed as uptake of [3H]-taurocholate in presence of ATP measured after 15 to 20 mins by membrane vesicle transport assay. It is filed as ADME, cell-based.
The nature of data set [14]: Ratio of drug concentration at steady state in human at 100 mg, po BID to IC50 for human BSEP overexpressed in Sf9 insect cells. In kind it is ADME, organism-based. Particulars: in vivo.

Sequence of ATP-binding cassette sub-family C member 3 (O15438 whole entry): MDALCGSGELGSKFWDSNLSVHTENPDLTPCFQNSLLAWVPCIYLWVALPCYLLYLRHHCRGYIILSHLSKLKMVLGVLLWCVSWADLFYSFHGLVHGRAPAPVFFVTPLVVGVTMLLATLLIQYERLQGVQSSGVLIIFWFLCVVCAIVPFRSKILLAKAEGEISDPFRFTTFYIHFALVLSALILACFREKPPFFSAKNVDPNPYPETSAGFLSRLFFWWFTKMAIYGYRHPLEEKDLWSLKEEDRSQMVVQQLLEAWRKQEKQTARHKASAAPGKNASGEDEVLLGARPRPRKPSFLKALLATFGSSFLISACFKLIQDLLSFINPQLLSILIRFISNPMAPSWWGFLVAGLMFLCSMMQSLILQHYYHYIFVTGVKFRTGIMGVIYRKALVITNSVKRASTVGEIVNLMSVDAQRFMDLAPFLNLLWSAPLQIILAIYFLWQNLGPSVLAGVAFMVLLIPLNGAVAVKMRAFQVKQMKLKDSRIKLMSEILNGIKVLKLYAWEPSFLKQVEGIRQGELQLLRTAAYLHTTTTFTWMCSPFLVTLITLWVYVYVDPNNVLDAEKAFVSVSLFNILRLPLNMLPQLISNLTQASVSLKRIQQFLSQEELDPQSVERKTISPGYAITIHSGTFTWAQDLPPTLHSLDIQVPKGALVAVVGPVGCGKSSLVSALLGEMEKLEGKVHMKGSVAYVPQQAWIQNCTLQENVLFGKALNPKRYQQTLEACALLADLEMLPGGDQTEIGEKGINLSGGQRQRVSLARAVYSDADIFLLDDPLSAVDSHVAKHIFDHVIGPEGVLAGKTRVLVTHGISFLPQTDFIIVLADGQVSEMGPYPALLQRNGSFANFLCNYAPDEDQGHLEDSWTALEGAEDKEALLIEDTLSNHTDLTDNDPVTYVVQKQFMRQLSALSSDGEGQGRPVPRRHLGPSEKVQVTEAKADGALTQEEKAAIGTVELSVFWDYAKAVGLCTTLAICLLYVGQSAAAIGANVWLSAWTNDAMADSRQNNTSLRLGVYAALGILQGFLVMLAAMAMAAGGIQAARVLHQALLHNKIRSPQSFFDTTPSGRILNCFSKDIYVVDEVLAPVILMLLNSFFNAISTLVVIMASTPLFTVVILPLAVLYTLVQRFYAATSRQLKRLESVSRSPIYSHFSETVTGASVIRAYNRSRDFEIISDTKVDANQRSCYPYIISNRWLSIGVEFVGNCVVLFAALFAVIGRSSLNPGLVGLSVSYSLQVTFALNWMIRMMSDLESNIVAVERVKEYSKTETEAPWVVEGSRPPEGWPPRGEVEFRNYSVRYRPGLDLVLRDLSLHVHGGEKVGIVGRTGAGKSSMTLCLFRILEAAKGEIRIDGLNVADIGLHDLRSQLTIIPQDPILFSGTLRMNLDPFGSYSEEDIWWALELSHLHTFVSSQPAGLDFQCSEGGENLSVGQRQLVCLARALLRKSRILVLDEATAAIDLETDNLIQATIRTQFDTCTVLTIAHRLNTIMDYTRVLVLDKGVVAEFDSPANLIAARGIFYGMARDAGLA
Sequence of Bile salt export pump (O95342 whole entry): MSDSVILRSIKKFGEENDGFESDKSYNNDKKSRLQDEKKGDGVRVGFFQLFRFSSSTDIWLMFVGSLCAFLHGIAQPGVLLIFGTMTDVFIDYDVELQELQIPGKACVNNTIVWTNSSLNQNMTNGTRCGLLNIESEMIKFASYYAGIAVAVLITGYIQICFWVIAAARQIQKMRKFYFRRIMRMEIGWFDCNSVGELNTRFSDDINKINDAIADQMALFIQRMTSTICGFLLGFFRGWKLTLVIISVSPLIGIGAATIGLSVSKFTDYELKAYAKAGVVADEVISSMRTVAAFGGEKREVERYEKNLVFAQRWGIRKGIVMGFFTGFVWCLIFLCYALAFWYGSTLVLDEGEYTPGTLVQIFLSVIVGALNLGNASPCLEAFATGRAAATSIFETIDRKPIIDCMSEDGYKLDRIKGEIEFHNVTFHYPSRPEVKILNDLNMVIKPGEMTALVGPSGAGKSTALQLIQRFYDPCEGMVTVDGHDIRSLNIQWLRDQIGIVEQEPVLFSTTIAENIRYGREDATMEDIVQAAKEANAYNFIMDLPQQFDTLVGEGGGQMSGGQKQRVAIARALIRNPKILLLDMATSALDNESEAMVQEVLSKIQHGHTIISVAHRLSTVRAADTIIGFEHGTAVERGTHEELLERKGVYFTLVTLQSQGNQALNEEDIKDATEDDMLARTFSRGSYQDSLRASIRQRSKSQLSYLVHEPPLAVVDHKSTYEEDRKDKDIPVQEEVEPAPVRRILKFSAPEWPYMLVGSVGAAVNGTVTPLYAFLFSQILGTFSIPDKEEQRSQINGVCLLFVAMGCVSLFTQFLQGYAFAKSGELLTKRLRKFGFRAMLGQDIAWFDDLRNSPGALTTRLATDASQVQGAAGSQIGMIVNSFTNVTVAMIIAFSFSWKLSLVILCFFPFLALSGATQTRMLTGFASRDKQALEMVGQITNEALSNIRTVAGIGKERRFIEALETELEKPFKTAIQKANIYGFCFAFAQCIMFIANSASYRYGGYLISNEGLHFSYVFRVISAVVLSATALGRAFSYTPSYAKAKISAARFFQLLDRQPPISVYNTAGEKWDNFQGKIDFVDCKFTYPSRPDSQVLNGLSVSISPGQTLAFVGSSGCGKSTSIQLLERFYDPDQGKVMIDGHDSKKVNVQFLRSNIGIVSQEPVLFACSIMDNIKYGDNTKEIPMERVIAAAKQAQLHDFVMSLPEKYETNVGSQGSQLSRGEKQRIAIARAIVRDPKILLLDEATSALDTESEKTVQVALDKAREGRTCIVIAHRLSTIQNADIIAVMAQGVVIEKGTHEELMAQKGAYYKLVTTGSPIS
Sequence of ATP-binding cassette sub-family C member 2 (Q92887 whole entry): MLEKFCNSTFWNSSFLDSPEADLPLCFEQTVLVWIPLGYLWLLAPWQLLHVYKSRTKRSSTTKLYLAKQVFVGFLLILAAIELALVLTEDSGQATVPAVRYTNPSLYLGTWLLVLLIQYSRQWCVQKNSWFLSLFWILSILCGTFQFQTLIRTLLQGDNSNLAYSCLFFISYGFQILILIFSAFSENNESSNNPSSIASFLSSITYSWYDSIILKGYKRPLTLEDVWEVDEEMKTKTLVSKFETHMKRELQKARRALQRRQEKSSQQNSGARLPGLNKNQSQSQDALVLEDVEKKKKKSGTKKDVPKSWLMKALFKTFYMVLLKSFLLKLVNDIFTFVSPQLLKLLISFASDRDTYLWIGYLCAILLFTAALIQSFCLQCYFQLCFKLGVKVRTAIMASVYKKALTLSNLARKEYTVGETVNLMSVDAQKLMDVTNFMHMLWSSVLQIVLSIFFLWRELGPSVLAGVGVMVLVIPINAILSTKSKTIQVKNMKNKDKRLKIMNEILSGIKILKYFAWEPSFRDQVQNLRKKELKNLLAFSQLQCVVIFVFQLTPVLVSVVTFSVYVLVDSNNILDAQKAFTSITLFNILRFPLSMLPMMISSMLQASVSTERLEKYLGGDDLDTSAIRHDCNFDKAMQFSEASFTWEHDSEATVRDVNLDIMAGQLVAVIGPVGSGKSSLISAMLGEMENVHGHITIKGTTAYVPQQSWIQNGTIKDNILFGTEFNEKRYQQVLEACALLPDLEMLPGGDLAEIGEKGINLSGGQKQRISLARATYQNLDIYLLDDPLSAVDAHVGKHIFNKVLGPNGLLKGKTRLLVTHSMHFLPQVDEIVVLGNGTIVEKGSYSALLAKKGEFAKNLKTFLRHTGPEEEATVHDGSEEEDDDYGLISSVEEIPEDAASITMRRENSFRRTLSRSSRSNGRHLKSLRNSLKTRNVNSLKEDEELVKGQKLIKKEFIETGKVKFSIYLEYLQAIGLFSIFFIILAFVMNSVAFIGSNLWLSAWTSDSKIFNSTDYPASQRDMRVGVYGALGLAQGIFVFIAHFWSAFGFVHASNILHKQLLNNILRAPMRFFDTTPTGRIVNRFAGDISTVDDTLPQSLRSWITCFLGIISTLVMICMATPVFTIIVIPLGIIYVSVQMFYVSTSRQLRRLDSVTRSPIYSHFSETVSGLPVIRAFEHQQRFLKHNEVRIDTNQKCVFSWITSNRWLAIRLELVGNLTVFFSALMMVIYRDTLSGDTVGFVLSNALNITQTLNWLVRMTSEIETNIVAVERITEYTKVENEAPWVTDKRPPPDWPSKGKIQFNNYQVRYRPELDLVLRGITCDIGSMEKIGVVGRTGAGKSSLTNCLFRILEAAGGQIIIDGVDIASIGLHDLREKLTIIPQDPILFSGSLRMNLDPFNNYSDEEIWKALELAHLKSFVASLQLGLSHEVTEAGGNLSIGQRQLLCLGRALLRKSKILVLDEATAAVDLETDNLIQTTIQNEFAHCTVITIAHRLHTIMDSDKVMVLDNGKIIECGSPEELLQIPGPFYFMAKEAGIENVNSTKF

Consider `Cc1c(O)cccc1C(=O)N[C@@H](CSc1ccccc1)[C@H](O)CN1C[C@H]2CCCC[C@H]2C[C@H]1C(=O)NC(C)(C)C`, for which the Ratio is 0.549 in [1] and 0.067 in data set [7]. In addition, the IC50 was more than 133 µM in data set [2], more than 133 µM in data set [5] and 97 µM in data set [6]. In data set [3], this compound showed an AUC at 12 h of 77.8 µM·h. The Css in [4] worked out at 6.482 µM.
In the case of `CCCCNC(=O)c1ccc(Oc2ccc(CC(=O)O)cc2OC)c(NS(=O)(=O)c2ccc(Cl)cc2Cl)c1`, the Ratio in data set [8] is 2.2; in [9], 0.18; in data set [14], 0.21. The Kp at 24 h in data set [10] amounted to 27. The Css in data set [11] stood at 2.4 µM. Further, in [12], the exposure (AUC) was found to be 32800 ng·h/mL. The IC50 in [13] turned out to be 11.5 µM; in data set [5] it was 1.1 µM; in data set [6] it was 13.5 µM.

Broadly, the IC50 is the concentration at which inhibition is half-maximal. As usually defined, the AUC is concentration integrated over time.
